The values that follow come from US9546173B2 (Novartis AG, priority 2012, dated 2017).

Structures are written as SMILES.

Chain of activated ERK2 (P28482 whole entry): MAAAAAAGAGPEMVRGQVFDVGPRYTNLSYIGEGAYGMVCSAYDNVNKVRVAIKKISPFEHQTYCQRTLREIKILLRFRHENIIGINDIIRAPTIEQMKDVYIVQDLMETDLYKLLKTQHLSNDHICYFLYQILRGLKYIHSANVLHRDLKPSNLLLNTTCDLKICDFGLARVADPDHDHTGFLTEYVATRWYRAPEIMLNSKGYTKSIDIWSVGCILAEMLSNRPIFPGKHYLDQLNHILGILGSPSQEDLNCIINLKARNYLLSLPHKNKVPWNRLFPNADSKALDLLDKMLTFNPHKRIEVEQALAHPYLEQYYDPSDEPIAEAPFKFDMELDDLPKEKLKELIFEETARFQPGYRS

This experiment deals with activated ERK2 (Homo sapiens (Human), UniProt P28482). Nature of the experiment: Activated ERK2 kinase assay (AlphaScreen, ERKtide peptide phosphorylation). In kind it is biochemical. The conditions noted are these: […] ERK2, 200 nM ERKtide peptide, 35 μM ATP, 30 min preincubation; read-out: ERK2 IC50. The source says: Production of Activated ERK2 Protein:
Activated ERK2 protein was generated in insect cells by co-expression with a constitutively active form of MEK1. The ERK2 protein was expressed and purified as a nHis-PreScission-ERK2 tagged protein and then proteolytically processed to the full-length wild-type protein. […] Double-phosphorylated ERK2 protein was purified from the mixture by mono-Q column separation.
Activated ERK2 Kinase Assay:
A 16-point, half-log dilution series of compounds at 41× final concentration was used for generating IC50 curves. Compound dilution series were prepared in 100% DMSO. ERK2 was preincubated with compounds for 30 minutes at ambient temperature. Reaction was initiated by addition of a substrate cocktail of ERKtide peptide and ATP and was allowed to proceed for 2-3 hours at ambient temperature. Reaction was terminated by addition of 10 μL of a 2× stop buffer consisting of 100 mM Tris-Cl [pH 7.5], 25 mM EDTA, 0.01% Tween 20, 10 μg/mL of AlphaScreen Protein A Acceptor Beads, 10 μg/mL of Streptavidin Donor Beads (PerkinElmer, Waltham, Mass.), and 1.4 μg/mL phospho-EGF Receptor (Thr669) antibody (Cat #3056, Cell Signaling Technology, Danvers, Mass.). Terminated reactions were read, after overnight incubation in the dark, on an EnVision Multilabel Plate Reader (PerkinElmer, Waltham, Mass.), with excitation and emission wavelengths set to 680 nm and 570 nm, respectively. IC50 values were determined using a four-parameter fit.
For orientation: Bead proximity is the source of the signal in Alpha formats.
Regarding `CC1(C)c2cnc(NC3CCOCC3)nc2CN1C(=O)NCc1nc2ccccc2s1` [compound 30, N-(benzo[d]thiazol-2-ylmethyl)-5,5-dimethyl-2-((tetrahydro-2H-pyran-4-yl)amino)-5H-pyrrolo[3,4-d]pyrimidine-6(7H)-carboxamide], the IC50 – broadly, the concentration needed to halve the response being measured – amounted to 49 nM.

As for `CC1(C)c2cnc(NC3CC3)nc2CN1C(=O)N[C@H](CO)c1ccccc1` [compound 31, (S)-2-(cyclopropylamino)-N-(2-hydroxy-1-phenylethyl)-5,5-dimethyl-5H-pyrrolo[3,4-d]pyrimidine-6(7H)-carboxamide], the concentration for half-maximal inhibition (IC50) is 317 nM.

Consider `CC1(C)c2cnc(NC3CCOCC3)nc2CN1C(=O)N[C@H](CN)c1ccccc1` [compound 32, (S)-N-(2-amino-1-phenylethyl)-5,5-dimethyl-2-((tetrahydro-2H-pyran-4-yl)amino)-5H-pyrrolo[3,4-d]pyrimidine-6(7H)-carboxamide], for which the half-inhibitory concentration (IC50) was 14 nM.

As to `CC(C)[C@@H](C)NC(=O)N1Cc2nc(NC3CCOCC3)ncc2C1(C)C` [compound 33, (R)-5,5-dimethyl-N-(3-methylbutan-2-yl)-2-((tetrahydro-2H-pyran-4-yl)amino)-5H-pyrrolo[3,4-d]pyrimidine-6(7H)-carboxamide], the IC50 came out at 596 nM.

With `CC1(C)c2cnc(NC3CCOCC3)nc2CN1C(=O)NCc1cc[nH]c(=O)c1` [compound 34, 5,5-dimethyl-N-((2-oxo-1,2-dihydropyridin-4-yl)methyl)-2-((tetrahydro-2H-pyran-4-yl)amino)-5H-pyrrolo[3,4-d]pyrimidine-6(7H)-carboxamide], the IC50 amounted to 5440 nM.

On to `CC1(C)c2cnc(NC3CCOCC3)nc2CN1C(=O)NCc1ccc(Cl)cn1` [compound 35, N-((5-chloropyridin-2-yl)methyl)-5,5-dimethyl-2-((tetrahydro-2H-pyran-4-yl)amino)-5H-pyrrolo[3,4-d]pyrimidine-6(7H)-carboxamide], for which the 50% inhibitory concentration (IC50) amounted to 106 nM.

In the case of `CC1(C)c2cnc(NC3CCOCC3)nc2CN1C(=O)NC1(c2ccccc2)CC1` [compound 36, 5,5-dimethyl-N-(1-phenylcyclopropyl)-2-((tetrahydro-2H-pyran-4-yl)amino)-5H-pyrrolo[3,4-d]pyrimidine-6(7H)-carboxamide], the IC50 was determined as 17 nM.

For `CC1(C)c2cnc(NC3CCOCC3)nc2CN1C(=O)NCC1CC1` [compound 37, N-(cyclopropylmethyl)-5,5-dimethyl-2-((tetrahydro-2H-pyran-4-yl)amino)-5H-pyrrolo[3,4-d]pyrimidine-6(7H)-carboxamide], the concentration for half-maximal inhibition (IC50) is 541 nM.

`CC1(C)c2cnc(NC3CCOCC3)nc2CN1C(=O)N[C@H]1c2ccccc2C[C@H]1O` [compound 38, N-((1S,2R)-2-hydroxy-2,3-dihydro-1H-inden-1-yl)-5,5-dimethyl-2-((tetrahydro-2H-pyran-4-yl)amino)-5H-pyrrolo[3,4-d]pyrimidine-6(7H)-carboxamide]: the IC50 stood at 516 nM.

For `CC1(C)c2cnc(NC3CCOCC3)nc2CN1C(=O)N[C@@H]1c2ccccc2C[C@@H]1O` [compound 39, N-((1R,2S)-2-hydroxy-2,3-dihydro-1H-inden-1-yl)-5,5-dimethyl-2-((tetrahydro-2H-pyran-4-yl)amino)-5H-pyrrolo[3,4-d]pyrimidine-6(7H)-carboxamide], the half-inhibitory concentration (IC50) is less than 25000 nM.

As for `C[C@H](NC(=O)N1Cc2nc(NC3CCOCC3)ncc2C1(C)C)c1ccccc1` [compound 40, (S)-5,5-dimethyl-N-(1-phenylethyl)-2-((tetrahydro-2H-pyran-4-yl)amino)-5H-pyrrolo[3,4-d]pyrimidine-6(7H)-carboxamide], the concentration for half-maximal inhibition (IC50) amounted to 799 nM.

Take `CC1(C)c2cnc(NC3CCOCC3)nc2CN1C(=O)N[C@@H]1CCCN(S(=O)(=O)c2ccccc2F)C1` [compound 41, (R)-N-(1-((2-fluorophenyl)sulfonyl)piperidin-3-yl)-5,5-dimethyl-2-((tetrahydro-2H-pyran-4-yl)amino)-5H-pyrrolo[3,4-d]pyrimidine-6(7H)-carboxamide]: the IC50 was 13 nM.

With `CC1(C)c2cnc(NC3CCOCC3)nc2CN1C(=O)N[C@@H]1CCCN(S(=O)(=O)c2ccccc2)C1` [compound 42, (R)-5,5-dimethyl-N-(1-(phenylsulfonyl)piperidin-3-yl)-2-((tetrahydro-2H-pyran-4-yl)amino)-5H-pyrrolo[3,4-d]pyrimidine-6(7H)-carboxamide], the IC50 turned out to be 27 nM.

Turning to `CC1(C)c2cnc(NC3CCOCC3)nc2CN1C(=O)NC1(c2ccccc2)CCOCC1` [compound 44, 5,5-dimethyl-N-(4-phenyltetrahydro-2H-pyran-4-yl)-2-((tetrahydro-2H-pyran-4-yl)amino)-5H-pyrrolo[3,4-d]pyrimidine-6(7H)-carboxamide], the IC50 came to 2730 nM.

As to `Cc1cc(Nc2ncc3c(n2)CN(C(=O)N[C@H](CO)c2ccccc2)C3(C)C)ccn1` [compound 45, (S)-N-(2-hydroxy-1-phenylethyl)-5,5-dimethyl-2-((2-methylpyridin-4-yl)amino)-5H-pyrrolo[3,4-d]pyrimidine-6(7H)-carboxamide], the half-inhibitory concentration (IC50) came out at 625 nM.

As for `CC1(C)c2cnc(NC3CCOCC3)nc2CN1C(=O)NCc1ccccc1` [compound 46, N-benzyl-5,5-dimethyl-2-((tetrahydro-2H-pyran-4-yl)amino)-5H-pyrrolo[3,4-d]pyrimidine-6(7H)-carboxamide], the IC50 amounted to 31 nM.

As for `CC1(C)c2cnc(NC3CCOCC3)nc2CN1C(=O)NCC1CCCCC1` [compound 47, N-(cyclohexylmethyl)-5,5-dimethyl-2-((tetrahydro-2H-pyran-4-yl)amino)-5H-pyrrolo[3,4-d]pyrimidine-6(7H)-carboxamide], the IC50 came to 31 nM.

On to `CNC(=O)N1Cc2nc(NC3CCOCC3)ncc2C1(C)C` [compound 49, N,5,5-trimethyl-2-((tetrahydro-2H-pyran-4-yl)amino)-5H-pyrrolo[3,4-d]pyrimidine-6(7H)-carboxamide], for which the IC50 worked out at 988 nM.

`CCNC(=O)N1Cc2nc(NC3CCOCC3)ncc2C1(C)C` [compound 50, N-ethyl-5,5-dimethyl-2-((tetrahydro-2H-pyran-4-yl)amino)-5H-pyrrolo[3,4-d]pyrimidine-6(7H)-carboxamide]: the concentration for half-maximal inhibition (IC50) turned out to be 839 nM.

For `CC(C)NC(=O)N1Cc2nc(NC3CCOCC3)ncc2C1(C)C` [compound 51, N-isopropyl-5,5-dimethyl-2-((tetrahydro-2H-pyran-4-yl)amino)-5H-pyrrolo[3,4-d]pyrimidine-6(7H)-carboxamide], the half-inhibitory concentration (IC50) is 938 nM.

Take `CC1(C)c2cnc(Nc3ccc(F)cc3)nc2CN1C(=O)N[C@H](CO)c1ccccc1` [compound 52, (S)-2-((4-fluorophenyl)amino)-N-(2-hydroxy-1-phenylethyl)-5,5-dimethyl-5H-pyrrolo[3,4-d]pyrimidine-6(7H)-carboxamide]: the half-inhibitory concentration (IC50) is 107 nM.

Consider `CC1(C)c2cnc(NCC3CC3)nc2CN1C(=O)N[C@H](CO)c1ccccc1` [compound 53, (S)-2-((cyclopropylmethyl)amino)-N-(2-hydroxy-1-phenylethyl)-5,5-dimethyl-5H-pyrrolo[3,4-d]pyrimidine-6(7H)-carboxamide], for which the IC50 stood at 505 nM.

Consider `CC1(C)c2cnc(NC3CC(F)(F)C3)nc2CN1C(=O)N[C@H](CO)c1ccccc1` [compound 54, (S)-2-((3,3-difluorocyclobutyl)amino)-N-(2-hydroxy-1-phenylethyl)-5,5-dimethyl-5H-pyrrolo[3,4-d]pyrimidine-6(7H)-carboxamide], for which the concentration for half-maximal inhibition (IC50) came out at 727 nM.

On to `CC1(C)c2cnc(N[C@H]3C[C@@H](O)C3)nc2CN1C(=O)N[C@H](CO)c1ccccc1` [compound 55, N-((S)-2-hydroxy-1-phenylethyl)-2-(((1s,3R)-3-hydroxycyclobutyl)amino)-5,5-dimethyl-5H-pyrrolo[3,4-d]pyrimidine-6(7H)-carboxamide], for which the IC50 was 677 nM.

On to `CC(=O)NCCNc1ncc2c(n1)CN(C(=O)N[C@H](CO)c1ccccc1)C2(C)C` [compound 56, (S)-2-((2-acetamidoethyl)amino)-N-(2-hydroxy-1-phenylethyl)-5,5-dimethyl-5H-pyrrolo[3,4-d]pyrimidine-6(7H)-carboxamide], for which the IC50 is 3500 nM.

As for `COCCNc1ncc2c(n1)CN(C(=O)N[C@H](CO)c1ccccc1)C2(C)C` [compound 57, (S)-N-(2-hydroxy-1-phenylethyl)-2-((2-methoxyethyl)amino)-5,5-dimethyl-5H-pyrrolo[3,4-d]pyrimidine-6(7H)-carboxamide], the IC50 turned out to be 3480 nM.

For `CC1(C)c2cnc(NCCC#N)nc2CN1C(=O)N[C@H](CO)c1ccccc1` [compound 58, (S)-2-((2-cyanoethyl)amino)-N-(2-hydroxy-1-phenylethyl)-5,5-dimethyl-5H-pyrrolo[3,4-d]pyrimidine-6(7H)-carboxamide], the IC50 stood at 1530 nM.

As to `CC1(C)c2cnc(N[C@H]3C[C@H](O)C3)nc2CN1C(=O)N[C@H](CO)c1ccccc1` [compound 59, N-((S)-2-hydroxy-1-phenylethyl)-2-(((1r,3S)-3-hydroxycyclobutyl)amino)-5,5-dimethyl-5H-pyrrolo[3,4-d]pyrimidine-6(7H)-carboxamide], the IC50 turned out to be 839 nM.
